For assay [1], the system named is MEK1 phosphorylation in the A375 human melanoma cell line. Put plainly: cells. To be noted: A-375, read-out: pMEK IC50.
Assay [2] deals with T1, RAF kinases (Homo sapiens, UniProt P15056). In words: biochemical.
The target of assay [3] is T2, RAF kinases (Homo sapiens, UniProt P04049). Put plainly: biochemical.
In assay [4] the target is T3, RAF kinases (Homo sapiens, UniProt P15056, V600E). The following applies: read-out: BRAF V600E Kd; BRAF V600E.
For assay [5], the system named is 290 distinct kinases tested excluding mutant variants (321 in the larger panel).
Description: Competition binding assays used herein were developed, validated and performed as described in Fabian et al., Nature Biotechnology 2005, 23, 329-336. […] The liganded beads were blocked with excess biotin and washed with blocking buffer (SeaBlock (Pierce), 1% BSA, 0.05% Tween 20, 1 mM DTT) to remove unbound ligand and to reduce non-specific binding. […] Test compounds were prepared as 100× stocks in DMSO and rapidly diluted into the aqueous environment. DMSO was added to control assays lacking a test compound. Primary screen interactions were performed in polypropylene 384-well plates in a final volume of 34 μt, while Kd determinations were performed in polystyrene 96-well plates in a final volume of 135 pt. […] The kinase concentration in the eluates was measured by quantitative PCR. Each kinase was tested individually against each compound. Kds were determined using eleven serial threefold dilutions. A selectivity score, which is a quantitative measure of selectivity of a compound against a panel of enzymes, may be calculated for a compound by dividing the number of enzymes for which a compound meets a set criteria, (for example, a binding constant of 100 nM or less), by the total number of enzymes tested. […] (Note, for those compounds tested in a larger kinase panel, as indicated by an asterisk (*) next to the S35 score, the divisor is 321 (i.e. the larger panel contains 321 distinct kinases, excluding mutant variants.)).
Assay [6] has as its target T3, RAF kinases. In words: biochemical.
In assay [7] the target is T1, RAF kinases. To be noted: read-out: BRAF WT Kd; BRAF WT.
Assay [8] concerns the target T2, RAF kinases. The following applies: read-out: RAF1 Kd; RAF1.
Assay [9] has as its system A375 cells. In words: cells. To be noted: Homo sapiens, A-375, read-out: A375 Viability EC50.
Setting [10] is: no asterisk: panel of 290 distinct kinases.
Setting [11] is: asterisk: panel of 321 distinct kinases.

Results on 20 compounds are retold here after patent publication US8618289B2 (Ambit Biosciences Corporation, priority 2008, dated 2013).

Read-outs that look alike come from different tables or passages of the source. Some results are limits rather than exact numbers.

T1 sequence (P15056 whole entry): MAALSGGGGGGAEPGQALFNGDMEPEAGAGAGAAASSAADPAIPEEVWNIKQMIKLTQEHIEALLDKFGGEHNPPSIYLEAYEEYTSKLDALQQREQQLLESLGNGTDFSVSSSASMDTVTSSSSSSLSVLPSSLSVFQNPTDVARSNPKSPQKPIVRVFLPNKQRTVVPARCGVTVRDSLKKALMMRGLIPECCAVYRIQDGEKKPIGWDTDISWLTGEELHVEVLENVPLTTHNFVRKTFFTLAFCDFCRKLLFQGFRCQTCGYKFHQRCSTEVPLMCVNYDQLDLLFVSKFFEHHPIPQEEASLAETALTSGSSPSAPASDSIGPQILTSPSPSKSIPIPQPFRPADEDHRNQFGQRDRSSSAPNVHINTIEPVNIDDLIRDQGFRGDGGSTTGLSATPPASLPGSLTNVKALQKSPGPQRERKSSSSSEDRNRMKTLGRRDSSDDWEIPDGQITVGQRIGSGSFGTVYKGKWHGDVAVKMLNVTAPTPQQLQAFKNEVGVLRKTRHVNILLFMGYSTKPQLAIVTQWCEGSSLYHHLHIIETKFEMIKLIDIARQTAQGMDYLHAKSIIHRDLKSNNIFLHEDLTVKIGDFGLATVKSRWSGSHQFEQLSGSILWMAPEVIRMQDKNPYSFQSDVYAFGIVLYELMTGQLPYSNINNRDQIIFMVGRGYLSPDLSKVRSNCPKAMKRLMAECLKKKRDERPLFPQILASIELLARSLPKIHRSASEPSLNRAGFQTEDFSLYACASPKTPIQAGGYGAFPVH
T2 sequence (P04049 whole entry): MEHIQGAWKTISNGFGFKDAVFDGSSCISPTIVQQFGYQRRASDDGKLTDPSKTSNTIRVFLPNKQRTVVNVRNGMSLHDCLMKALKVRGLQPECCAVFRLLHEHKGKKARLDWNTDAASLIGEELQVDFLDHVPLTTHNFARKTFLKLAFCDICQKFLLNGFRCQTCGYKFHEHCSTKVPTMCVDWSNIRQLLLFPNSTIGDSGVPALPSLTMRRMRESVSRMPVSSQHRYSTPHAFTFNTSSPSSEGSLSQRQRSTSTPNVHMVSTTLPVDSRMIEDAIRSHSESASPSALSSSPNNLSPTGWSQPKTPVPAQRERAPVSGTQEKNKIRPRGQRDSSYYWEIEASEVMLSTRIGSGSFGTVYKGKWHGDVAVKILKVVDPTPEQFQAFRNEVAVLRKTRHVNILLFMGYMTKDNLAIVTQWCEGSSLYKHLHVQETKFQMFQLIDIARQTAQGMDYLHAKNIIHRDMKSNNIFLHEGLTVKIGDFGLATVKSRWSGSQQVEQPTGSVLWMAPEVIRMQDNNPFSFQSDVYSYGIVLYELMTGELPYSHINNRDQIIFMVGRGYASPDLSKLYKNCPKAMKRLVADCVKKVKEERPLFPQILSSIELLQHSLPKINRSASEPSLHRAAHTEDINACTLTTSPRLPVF
T3 sequence (P15056 whole entry V600E): as the sequence (P15056 whole entry) above, with V600E counted along it

The IC50 is the point on the concentration scale where inhibition reaches its midpoint. In general, Kd refers to the free concentration of one partner at which half of the binding sites on the other are occupied at equilibrium, for simple one-to-one binding. On to `COc1cc2ncnc(Oc3cccc(NC(=O)Nc4cc(C(C)(C)C)nn4-c4ccncc4)c3)c2cc1OC` [Ex336, 1-(3-tert-butyl-1-(pyridin-4-yl)-1H-pyrazol-5-yl)-3-(3-(6,7-dimethoxyquinazolin-4-yloxy)phenyl)urea], for which, in [1], the IC50 was below 0.25 µM. Moreover, the figures for the Kd in assay [2], in assay [3] and in [4] were 0.5 to 1 µM, 0.5 to 1 µM and below 0.25 µM, respectively. In addition, the S35 result in [5] (setting [10]) is “D (D > 0.40)”.

Turning to `COc1cc2ncnc(Oc3cccc(NC(=O)Nc4cc(C(C)(C)C)nn4-c4cccnc4)c3)c2cc1OC` [Ex 322, 1-(3-tert-butyl-1-(pyridin-3-yl)-1H-pyrazol-5-yl)-3-(3-(6,7-dimethoxyquinazolin-4-yloxy)phenyl)urea], the IC50 in assay [1] is below 0.25 µM. Besides, the equilibrium dissociation constant (Kd) in assay [2] is 0.25 to 0.5 µM; in assay [3], 0.25 to 0.5 µM; in [4], below 0.25 µM. Besides, in [5] (setting [10]), the S35 entry is “D (D > 0.40)”.

As a reminder, the EC50 is the concentration at which the effect is half-maximal. With `COCCOc1cc2ncnc(Oc3cccc(NC(=O)Nc4cc(C5CCOCC5)no4)c3)c2cc1OC` [Ex 216, 1-(3-(6-methoxy-7-(2-methoxyethoxy)quinazolin-4-yloxy)phenyl)-3-(3-(tetrahydro-2H-pyran-4-yl)isoxazol-5-yl)urea], the IC50 in assay [1] is above 1 µM. Also, the Kd in assay [6] is 0.25 to 0.5 µM; in assay [7], above 1 µM; in [8], above 1 µM. Besides, the EC50 in assay [9] was above 1 µM.

Turning to `COc1cc2ncnc(Sc3cccc(NC(=O)Nc4cc(C(C)(C)C)nn4-c4cncc(F)c4)c3)c2cc1OC` [Ex 327, 1-(3-tert-butyl-1-(5-fluoropyridin-3-yl)-1H-pyrazol-5-yl)-3-(3-(6,7-dimethoxyquinazolin-4-ylthio)phenyl)urea], the IC50 in [1] is below 0.25 µM. Moreover, the figures for the Kd in [2], in [3] and in assay [4] were 0.5 to 1 µM, 0.5 to 1 µM and below 0.25 µM, respectively. Besides, the S35 entry in assay [5] (setting [10]) is on record as “D (D > 0.40)”.

In the case of `COc1cc2ncnc(Sc3cccc(NC(=O)Nc4cc(C(C)(C)C)nn4CC(C)C)c3)c2cc1OC` [Ex 333, 1-(3-tert-butyl-1-isobutyl-1H-pyrazol-5-yl)-3-(3-(6,7-dimethoxyquinazolin-4-ylthio)phenyl)urea], in assay [1], the IC50 was 0.5 to 1 µM. Besides, the Kd is 0.25 to 0.5 µM in assay [2], 0.25 to 0.5 µM in assay [3] and below 0.25 µM in assay [4]. Moreover, in assay [5] (setting [10]), the S35 entry is on record as “C (0.20 < C ≦ 0.40)”.

Consider `COCCOc1cc2ncnc(Sc3cccc(NC(=O)Nc4cc(C(C)(C)C)nn4-c4ccc(C)cc4C)c3)c2cc1OC` [Ex 283, 1-(3-tert-butyl-1-(2,4-dimethylphenyl)-1H-pyrazol-5-yl)-3-(3-(6-methoxy-7-(2-methoxyethoxy)quinazolin-4-ylthio)phenyl)urea], for which the IC50 in assay [1] is below 0.25 µM. For the same compound, the Kd is 0.5 to 1 µM in [6], above 1 µM in assay [7] and above 1 µM in [8]. Moreover, in assay [9], the EC50 is above 1 µM.

As for `CCOC(=O)Cn1nc(C(C)(C)C)cc1NC(=O)Nc1cccc(Sc2ncnc3cc(OCCOC)c(OC)cc23)c1` [Ex 237, ethyl 2-[3-tert-butyl-5-(3-{3-[6-methoxy-7-(2-methoxyethoxy)quinazolin-4-ylthio]phenyl}ureido)-1H-pyrazol-1-yl]acetate], the IC50 in [1] fell in the range of 0.5 to 1 µM. The Kd in [6] was 0.5 to 1 µM; in assay [7] it was above 1 µM; in assay [8] it was above 1 µM. Also, the EC50 in assay [9] was above 1 µM.

`COc1cc2ncnc(Oc3cccc(NC(=O)Nc4cc(C(F)(F)C(F)(F)F)nn4-c4ccccc4)c3)c2cc1OC` [Ex 304, 1-(3-(6,7-dimethoxyquinazolin-4-yloxy)phenyl)-3-(3-(perfluoroethyl)-1-phenyl-1H-pyrazol-5-yl)urea]: the IC50 in assay [1] lay in the range of 0.25 to 0.5 µM. The equilibrium dissociation constant (Kd) in assay [6] was 0.25 to 0.5 µM; in assay [7], above 1 µM; in assay [8] it was above 1 µM. For the same compound, the EC50 in assay [9] was below 0.25 µM.

Take `COCCOc1cc2ncnc(Oc3cccc(NC(=O)Nc4cc(C(F)(F)F)nn4-c4ccc(C)cc4)c3)c2cc1OC` [Ex 227, 1-{3-[6-methoxy-7-(2-methoxyethoxy)quinazolin-4-yloxy]phenyl}-3-[1-p-tolyl-3-(trifluoromethyl)-1H-pyrazol-5-yl]urea]: in assay [1], the IC50 lay within 0.25 to 0.5 µM. In addition, the Kd is 0.5 to 1 µM in assay [6], above 1 µM in [7] and above 1 µM in assay [8]. Moreover, the EC50 in [9] lay in the range of 0.25 to 0.5 µM.

For `COc1cc2ncnc(Oc3cccc(NC(=O)Nc4cc(C(C)(C)C)nn4-c4ccc(C#N)cc4)c3)c2cc1OC` [Ex 328, 1-(3-tert-butyl-1-(4-cyanophenyl)-1H-pyrazol-5-yl)-3-(3-(6,7-dimethoxyquinazolin-4-yloxy)phenyl)urea], in assay [1], the IC50 is below 0.25 µM. Also, the Kd in assay [2] is 0.25 to 0.5 µM; in assay [3] it was 0.25 to 0.5 µM; in assay [4], below 0.25 µM. In addition, the S35 result in assay [5] (setting [10]) is reported as “D (D > 0.40)”.

In the case of `COc1cc2ncnc(Sc3cccc(NC(=O)Nc4cc(C(C)(C)C)nn4-c4ccncc4)c3)c2cc1OC` [Ex 337, 1-(3-tert-butyl-1-(pyridin-4-yl)-1H-pyrazol-5-yl)-3-(3-(6,7-dimethoxyquinazolin-4-ylthio)phenyl)urea], the IC50 in [1] is below 0.25 µM. Besides, the Kd was 0.5 to 1 µM in assay [2], 0.5 to 1 µM in assay [3] and below 0.25 µM in assay [4]. Besides, the S35 result in [5] (setting [10]) is “D (D > 0.40)”.

Consider `COc1cc2ncnc(Sc3cccc(NC(=O)Nc4cc(C(F)(F)F)n(-c5ccccc5)n4)c3)c2cc1OC` [Ex 170, 1-[3-(6,7-dimethoxyquinazolin-4-ylthio)phenyl]-3-[1-phenyl-5-(trifluoromethyl)-1H-pyrazol-3-yl]urea], for which the IC50 in [1] was 0.25 to 0.5 µM. The S35 result in assay [5] (setting [11]) is listed as “B* (0.10 < B ≦ 0.20)”. The EC50 in [9] is 0.25 to 0.5 µM.

Regarding `COc1cc(OC2CCOCC2)c2c(Sc3cccc(NC(=O)Nc4cc(C(C)(C)C)on4)c3)ncnc2c1`, the S35 entry in assay [5] (setting [10]) is “C (0.20 < C ≦ 0.40)”.

Consider `COc1cc2ncnc(Oc3cccc(NC(=O)Nc4cc(C(C)(C)C)nn4-c4cncc(F)c4)c3)c2cc1OC` [Ex 326, 1-(3-tert-butyl-1-(5-fluoropyridin-3-yl)-1H-pyrazol-5-yl)-3-(3-(6,7-dimethoxyquinazolin-4-yloxy)phenyl)urea], for which, in assay [1], the half-maximal inhibitory concentration (IC50) is below 0.25 µM. The Kd is 0.5 to 1 µM in assay [2], 0.5 to 1 µM in assay [3] and below 0.25 µM in [4]. For the same compound, the S35 result in [5] (setting [10]) is recorded as “D (D > 0.40)”.

For the compound `COCCOc1cc2ncnc(Oc3cccc(NC(=O)Nc4cc(C(C)(CF)CF)nn4-c4ccccc4)c3)c2cc1OC` [Ex 228, 1-[3-(1,3-difluoro-2-methylpropan-2-yl)-1-phenyl-1H-pyrazol-5-yl]-3-{3-[6-methoxy-7-(2-methoxyethoxy)quinazolin-4-yloxy]phenyl}urea], the IC50 in assay [1] is below 0.25 µM. For the same compound, the Kd in assay [6] was 0.5 to 1 µM; in assay [7] it was above 1 µM; in assay [8], above 1 µM. Besides, the EC50 in assay [9] was above 1 µM.

For the compound `COCCOc1cc2ncnc(Oc3cccc(NC(=O)Nc4cc(C(F)(F)F)n(-c5ccccc5)n4)c3)c2cc1OC` [Ex 225, 1-{3-[6-methoxy-7-(2-methoxyethoxy)quinazolin-4-yloxy]phenyl}-3-[1-phenyl-5-(trifluoromethyl)-1H-pyrazol-3-yl]urea], the IC50 in assay [1] fell in the range of 0.5 to 1 µM. The Kd in assay [6] was 0.25 to 0.5 µM; in assay [7] it was above 1 µM; in [8], above 1 µM. In addition, the EC50 in assay [9] is above 1 µM.

For `COCCOc1cc2ncnc(Sc3cccc(NC(=O)Nc4ccc(C(F)(F)F)c(F)c4)c3)c2cc1OC` [Ex 231, 1-(3-fluoro-4-(trifluoromethyl)phenyl)-3-(3-(6-methoxy-7-(2-methoxyethoxy)quinazolin-4-ylthio)phenyl)urea], the IC50 in [1] is above 1 µM. Besides, the Kd is 0.5 to 1 µM in assay [6], above 1 µM in assay [7] and above 1 µM in assay [8]. The EC50 in assay [9] was above 1 µM.

In the case of `COCCOc1cc2ncnc(Oc3cccc(NC(=O)Nc4cc(C(F)(F)F)nn4-c4ccc(F)cc4)c3)c2cc1OC` [Ex 226, 1-[1-(4-fluorophenyl)-3-(trifluoromethyl)-1H-pyrazol-5-yl]-3-{3-[6-methoxy-7-(2-methoxyethoxy)quinazolin-4-yloxy]phenyl}urea], the IC50 in [1] lay within 0.25 to 0.5 µM. Further, the dissociation constant (Kd) in [6] was 0.5 to 1 µM; in assay [7], above 1 µM; in assay [8] it was above 1 µM. In addition, in assay [9], the EC50 is above 1 µM.

Take `COc1cc2ncnc(Sc3cccc(NC(=O)Nc4cc(C(F)(F)F)n(C)n4)c3)c2cc1OC` [Ex 194, 1-[3-(6,7-dimethoxyquinazolin-4-ylthio)phenyl]-3-[1-methyl-5-(trifluoromethyl)-1H-pyrazol-3-yl]urea]: the IC50 in assay [1] was in the range of 0.25 to 0.5 µM. Further, the S35 result in assay [5] (setting [11]) is “C* (0.20 < C ≦ 0.40)”. The EC50 in assay [9] is 0.5 to 1 µM.

On to `COc1cc2ncnc(Oc3ccc(Cl)c(NC(=O)Nc4cc(C(F)(F)F)nn4-c4ccccc4)c3)c2cc1OC` [Ex 300, 1-(2-chloro-5-(6,7-dimethoxyquinazolin-4-yloxy)phenyl)-3-(1-phenyl-3-(trifluoromethyl)-1H-pyrazol-5-yl)urea], for which the IC50 in [1] lay in the range of 0.25 to 0.5 µM. Also, the Kd in assay [6] is 0.5 to 1 µM; in [7] it was above 1 µM; in assay [8], above 1 µM. Besides, in [9], the EC50 is above 1 µM.
